Data reported in US20070202574A1, “Novel Saccharothrix Strain an Antibiotics Derived Therefrom, i.e. Mutactimycins and Aldgamycins” (Institut National Polytechnique de Toulouse, priority 2004, published 2007).
Values after ≈ are worked out from the molar mass of the structure shown. Values joined by “and” are separate entries in the source; they are usually repeats but may differ in a detail not shown here. Equal entries are not always repeated. “Also recorded” adds a separate entry of the source.

Tests used:
[1] = test system: Mycobacterium smegmatis ATCC 607; assay: MIC, antimicrobial spectrum; format: cell-based; conditions: for activity in words: Mycobacterium smegmatis; for MIC: Mycolicibacterium smegmatis, ATCC607, Mycobacterium smegmatis ATCC 607
[2] = test system: Klebsiella pneumoniae CIP 82.91; assay: MIC, antimicrobial spectrum; format: cell-based; conditions: for activity in words: K. pneumoniae; for MIC: Klebsiella pneumoniae, CIP82, Klebsiella pneumoniae CIP 82.91
[3] = Relative solubility in solvents; format: physicochemical; conditions: value = list of solvents; for Relative solubility: Highly soluble (solvents) / Relative solubility: Insoluble (solvents) / Relative solubility: Medium soluble (solvents): wrapped cells given line by line
Source text: The antibiotics P11, PR, F and G are bright red in colour at neutral pH, yellow at acid pH and violet-blue at basic pH. P11 is the majority antibiotic and PR, the minority antibiotic. These antibiotics were the subject of the following […] analyses: UV visible light, infrared, mass spectrometry and NMR of the proton and carbon 13 (with studies of the correlations). Supplementary tests, such a solubility, determination of Rf by CCM and elemental analysis (the latter only for P11) were also carried out.

[4] = test system: Micrococcus luteus ATCC 9314; assay: MIC, antimicrobial spectrum; format: cell-based; conditions: for activity in words: M. luteus; for MIC: ATCC9314, Micrococcus luteus ATCC 9314
[5] = test system: Staphylococcus aureus CIP 53156; assay: MIC, antimicrobial spectrum; format: cell-based; conditions: for activity in words: Staphylococcus aureus CIP 53156; for MIC: Staphylococcus aureus, CIP53156, Staphylococcus aureus CIP 53156
[6] = test system: Bacillus subtilis ATCC 6633; assay: MIC, antimicrobial spectrum; format: cell-based; conditions: for MIC: ATCC6633, Bacillus subtilis ATCC 6633
Bacillus subtilis = assay: HPLC fractions tested against Bacillus subtilis (gelose diffusion test); format: cell-based; conditions: concentrated HPLC peak fractions
Method: A sample of the strain SA 103 taken from an immature inclined culture was inoculated into an Erlenmeyer flask containing 50 ml of the sterile culture medium containing 0.4t glucose, a 1% malt extract and a 0.4% yeast extract (adjusted to pH 7.2 before sterilisation) and placed in culture on a rotary stirrer (250 rpm) at 30° C. for two days. For producing antibiotics, 3 ml of culture medium were transferred to 500 ml Erlenmeyer flasks, each containing 100 ml of the above medium, and placed in culture for 10 days using the same conditions. The production of total antibacterial activity was carried out on a nutrient gelose, by a gelose diffusion test against Bacillus sutilis ATCC 6633. Inhibition of growth was examined after 24 hours of incubation at 30° C. Antimicrobial activity was estimated by measuring the diameter of the inhibition zone. The dry weight of the mycelium was determined in Eppendorf tubes filled with 1 ml of homogenized culture medium and dried at 105° C. for 24 hours (Pfefferle et al. J. Biotech. 80:135-142, 2000).
The butanolic extract, of a red colour, was concentrated on the Rotavapor. An aliquot of this extract was first sent through a Sephadex LH 20 column using methanol in double distilled water (80%) as the mobile phase. However, the separation of the antibiotics (visualisation by the naked eye and by the antibiography) was not conclusive. This step was therefore eliminated and the butanolic extract was purified directly by a reverse phase HPLC using a C18 column and isocratic conditions (63% methanol in water), a flow rate of 1.5 ml/min and detection at 220 nm. The fractions corresponding to all the peaks obtained on the profile were collected separately, concentrated and tested against Bacillus subtilis. […] These antibiotics were purified by HPLC after 3 to 4 reinjections in the same conditions as previously.

[7] = test system: Staphylococcus aureus CIP 7625; assay: MIC, antimicrobial spectrum; format: cell-based; conditions: CIP7625
[8] = test system: Mucor ramannianus NRRL 1829; assay: MIC, antimicrobial spectrum; format: cell-based; conditions: Umbelopsis ramanniana, NRRL1829
[9] = test system: Saccharomyces cerevisiae ATCC 4226; assay: MIC, antimicrobial spectrum; format: cell-based; conditions: ATCC4226
[10] = test system: Pseudomonas syringae No 1882; assay: MIC, antimicrobial spectrum; format: cell-based; conditions: NO1882
[11] = test system: Escherichia coli ATCC 10536; assay: MIC, antimicrobial spectrum; format: cell-based; conditions: ATCC10536
[12] = test system: Agrobacterium tumefaciens No 2410; assay: MIC, antimicrobial spectrum; format: cell-based; conditions: NO2410
[13] = test system: Listeria monocytogenes CIP 82110; assay: MIC, antimicrobial spectrum; format: cell-based; conditions: CIP82110, Listeria monocytogenes CIP 82110

SMILES	Relative solubility: Insoluble (solvents) [3]	Relative solubility: Medium soluble (solvents) [3]	MIC [4] [µg/mL]	MIC [7] [µg/mL]	MIC [8] [µg/mL]	MIC [9] [µg/mL]	MIC [10] [µg/mL]	MIC [11] [µg/mL]	MIC [12] [µg/mL]	MIC [1] [µg/mL]	MIC [2] [µg/mL]	MIC [13] [µg/mL]	MIC [5] [µg/mL]	MIC [6] [µg/mL]	activity in words [1]	activity in words [2]	soluble in (solvents) [3]	Relative solubility: Highly soluble (solvents) [3]	activity in words [4]	activity of the collected HPLC fraction against Bacillus subtilis (Bacillus subtilis)	other results
COc1cccc2c1C(=O)c1c(O)c3c(c(O)c1C2=O)CC(C)(O)CC3OC1OC(C)C(O)C(O)C1O (stereo not drawn) [F, mutactimycin F]	n-hexane and toluene	MeOH, EtOH	–	–	–	–	–	–	–	–	–	–	–	–	active	active	water, n-butanol, 1-propanol and ethanol	n-BuOH, 1-PrOH	active	active	Relative solubility: Insoluble (solvents) ([3]; listed as Mutactimycin F): H2O, CH2Cl2, CHCl3; also recorded: EtOAc, Me2CO, n-hexane,; also recorded: toluene; activity in words [5]: active; activity in words [6]: active
CC1OC(Oc2cccc3c2C(=O)c2c(O)c4c(c(O)c2C3=O)CC(C)(O)CC4O)C(O)C(O)C1O (stereo not drawn) [G, mutactimycin G]	chloroform, dichloromethane, ethyl acetate, n-hexane and toluene; also recorded: H2O, CH2Cl2, CHCl3, EtOAc,; also recorded: Me2CO, n-hexane, toluene	MeOH, EtOH	–	–	–	–	–	–	–	–	–	–	–	–	active	active	water, n-butanol, 1-propanol, methanol and ethanol	n-BuOH, l-PrOH	active	active	activity in words [5]: active; activity in words [6]: active
COc1cccc2c1C(=O)c1c(O)c3c(c(O)c1C2=O)CC(C)(O)CC3OC1OC(C)C(O)C(OC)C1O (stereo not drawn) [P11, mutactimycin C]	n-hexane and toluene	CH2Cl2, CHCl3, EtOAc, and 2-PrOH	5 (≈ 9.42 µM)	> 100	> 100	> 100	> 100	> 100	> 100	75 (≈ 141 µM)	5 (≈ 9.42 µM)	50 (≈ 94.2 µM)	10 (≈ 18.8 µM)	40 (≈ 75.4 µM)	–	–	–	water, methanol, n-butanol, ethanol, 1-propanol and acetone; also recorded: MeOH, Me2CO, H20, n-; also recorded: BuOH, EtOH, 1-PrOH	–	active	–
COC1C(O)C(C)OC(OC2CC(C)(O)Cc3c(O)c4c(c(O)c32)C(=O)c2c(OC3OC(C)C(O)C(O)C3O)cccc2C4=O)C1O (stereo not drawn) [PR, mutactimycin PR]	chloroform, dichloromethane, ethyl acetate, n-hexane and toluene	–	50 (≈ 75.5 µM)	> 100	> 100	> 100	> 100	> 100	> 100	> 100	40 (≈ 60.4 µM)	> 100	50 (≈ 75.5 µM)	75 (≈ 113 µM)	active	active	–	water, methanol and ethanol	active	active	Relative solubility: Highly soluble (solvents) ([3]; listed as mutactimycin PR): MeOH, EtOH, H2O; Relative solubility: Insoluble (solvents) ([3]; listed as mutactimycin PR): CH2Cl2, CHCl3,; also recorded: EtOAc, n-hexane,; also recorded: toluene; Relative solubility: Medium soluble (solvents) ([3]; listed as mutactimycin PR): Me2CO, n-BuOH, 1-; also recorded: PrOH, 2-PrOH; activity in words [5]: active; activity in words [6]: active

Continued, in another order:

Relative solubility: Insoluble (solvents) [3]	Relative solubility: Medium soluble (solvents) [3]	MIC [4] [µg/mL]	MIC [7] [µg/mL]	MIC [8] [µg/mL]	MIC [9] [µg/mL]	MIC [10] [µg/mL]	MIC [11] [µg/mL]	MIC [12] [µg/mL]	MIC [1] [µg/mL]	MIC [2] [µg/mL]	MIC [13] [µg/mL]	MIC [5] [µg/mL]	MIC [6] [µg/mL]	SMILES	activity in words [1]	activity in words [2]	soluble in (solvents) [3]	Relative solubility: Highly soluble (solvents) [3]	activity in words [4]	activity of the collected HPLC fraction against Bacillus subtilis (Bacillus subtilis)	other results
–	–	1 (≈ 1.4 µM)	> 100	> 100	> 100	> 100	> 100	> 100	–	–	–	–	–	COC1C(OCC2C(C)OC(=O)/C=C/C(C)C(OC3OC(C)CC(O)(C(C)O)C3O)C(C)CC(C)C(=O)/C=C/C3OC32)OC(C)C(O)C1OC (stereo not drawn) [P8, aldgamycin H]	–	–	–	methanol, n-butanol, ethanol, 1 and 2-propnol, ethyl acetate, acetone, chloroform and dichloromethane; also recorded: MeOH, EtOR, Me2CO,; also recorded: n-BuOH, 1-PrOH, 2-; also recorded: PrOH, CH2Cl2,; also recorded: EtOAc, CHCl3	–	active	–
–	–	1 (≈ 1.35 µM)	–	–	–	–	–	–	50 (≈ 67.5 µM)	0.1 (≈ 0.135 µM)	30 (≈ 40.5 µM)	1 (≈ 1.35 µM)	1 (≈ 1.35 µM)	COC1C(OCC2C(C)OC(=O)/C=C/C(C)C(OC3OC(C)CC4(OC(=O)OC4C)C3O)C(C)CC(C)C(=O)/C=C/C3OC32)OC(C)C(O)C1OC (stereo not drawn) [P10a, aldgamycin G]	–	–	n-butanol, 1 and 2-propanol, methanol, dichloromethane, ethyl acetate, chloroform, acetone and ethanol	methanol, n-butanol, ethanol, 1 and 2-propnol, ethyl acetate, acetone, chloroform and dichloromethane; also recorded: MeOH, EtOH, Me2CO,; also recorded: n-BuOH, 1-PrOH, 2-; also recorded: PrOH, CH2Cl2,; also recorded: EtOAc, CHCl3	–	active	–
water and n-hexane	–	1 (≈ 1.43 µM)	> 100	> 100	> 100	> 100	> 100	> 100	50 (≈ 71.5 µM)	0.1 (≈ 0.143 µM)	30 (≈ 42.9 µM)	1 (≈ 1.43 µM)	1 (≈ 1.43 µM)	COC1C(OCC2/C=C/C=C/C(=O)C(C)CC(C)C(OC3OC(C)CC(O)(C(C)O)C3O)C(C)/C=C/C(=O)OC2C)OC(C)C(O)C1OC (stereo not drawn) [P10b, aldgamycin P10b]	–	–	–	methanol, n-butanol, ethanol, 1 and 2-propnol, ethyl acetate, acetone, chloroform and dichloromethane	–	active	–
